# What was measured:
# rat colon tissue = assay: Ratiometric TPM imaging (F2/F1) of rat colon slices; assay type: in vivo; settings: basal, slices labeled with 20 μM 2-6
# Description: The utility of the compound of [Chemical Formula 2-6] was investigated in living tissues from a 5-week-old rat colon. The inventors were particularly interested in the mucosa, muscularis mucosae and submucosa because they are invaded in the early stage of tumor (FIG. 4c). Since it takes a long time to stain the tissues during which they may be deformed, excess amount (20 μM) of the compound of [Chemical Formula 2-6] was used to facilitate staining.
# Because the structure of the colon tissue is heterogeneous, TPEF intensities were acquired from 150 sections along the z-direction at a depth of about 90-170 μm using two detection windows (1 and 2) to visualize the overall sulfide distribution.
# Therefore, the sections were divided into two regions and they were assigned as mucosa (90-150 μm) and submucosa including the muscularis mucosae (151-170 μm).
# Male Sprague-Dawley rats (235-265 g) were divided into two groups (5-FU and control groups). In the 5-FU group, 150 mg/kg of 5-FU (SoloPak Laboratories, Franklin Park, Ill.) were intraperitoneally injected into the rats. The rats of the control group were injected with saline. Each group consisted of 4 rats.
# All the rats were injected between 9 pm and 12 midnight, were allowed free access to food and water and were housed in the same room with 8-hour cycles.
# 8 hours after the intraperitoneal injection, all the rats were sacrificed. Laparotomy was performed after anesthetizing the rats.
# Slices were prepared from the colon of the rats. The colon slices were cut into 2-cm long segments, opened by longitudinal incision and then treated with Dulbecco's phosphate-buffered saline (D-PBS; […]).
# The colon slices were incubated with the compound of [Chemical Formula 2-6] (20 μM) in D-PBS bubbled with 95% O2 and 5% CO2 at 37° C. The colon slices were then moved to glass-bottomed dishes, washed 3 times with D-PBS and observed under a confocal multiphoton microscope.
# TPEF intensities were collected using detection windows of 390-450 nm and 520-650 nm, with 110 sections at a depth of 90-150 μm (mucosa) and 40 sections at a depth of 151-170 μm (submucosa).
# Then ratiometric images were constructed from the TPEF intensities collected using the two detection window. The F2/F1 ratio was expressed as mean±SD and p was set to be smaller than 0.05.
# HeLa cells [1] = assay: Kinetic estimation of total sulfide concentration in HeLa cells (TPEF); assay type: cell-based, human
# Description: To quantitatively estimate the total sulfide concentration in living cells, the TPEF intensity of HeLa cells labeled with the compound of [Chemical Formula 2-6] was monitored in the absence and presence of Na2S, cysteine (Cys) and glutathione (GSH) with 20-30 minute intervals.
# Since H2S and HS^− are in equilibrium and [H2S]/[HS^−]=[H^+]/Ka=0.794 in HEPES/EtOH (1/1, pH=7.2), it seems appropriate to present the total sulfide concentration ([H2S]+[HS^−]).
# Kinetic experiments in HeLa cells were conducted in the same manner except that TPEF intensities from HeLa cells labeled with the compound of [Chemical Formula 2-6] upon excitation at 750 nm were monitored with 20-30 minute intervals.
# The average TPEF intensities at given time and the SB2/SA1 ratio was obtained by dividing the TPEF intensity of [Chemical Formula 2-6] at 390-450 nm by that of [Chemical Formula 2-5] at 525-650 nm in the HeLa cells (FIG. 1b) were used in the kobs calculation.
# The kobs value was measured at 10 regions of interest (ROIs) from three independent cell lines.
# To evaluate the effect of Na2S, cysteine and GSH, HeLa cells were incubated with the compound of [Chemical Formula 2-6] (2 μM) and then treated with Na2S (100, 300 μM), cysteine (500 μM) and GSH (500 μM) for 30 minutes. The cells were then washed 3 times with FBS-free DMEM and subjected to kinetic measurement.
# [2] = Measurement of two-photon cross section (fs fluorescence technique, rhodamine 6G reference); assay type: physicochemical; settings: for Φδmax, two-photon action cross section: uncertainty ±15%
# Description: Two-photon cross section (δ) was determined using a femtosecond (fs) fluorescence measurement technique.
# The compound of [Chemical Formula 2-5] and the compound of [Chemical Formula 2-6] were dissolved in 20 mM HEPES buffer (pH 7.2) and 3.0×10^−6 M HEPES/EtOH (1/1) and then two-photon induced fluorescence intensity was measured at 740-940 nm using rhodamine 6G as a reference, whose two-photon property has been well characterized. The two-photon fluorescence intensities of the reference and the compound of [Chemical Formula 2-6] and the compound of [Chemical Formula 2-5] were determined.
# The two-photon cross section was calculated from δ=δr(Ssφrφrcr)/(Srφsφscs). In the equation, the subscripts s and r stand for the sample, i.e., the compound of [Chemical Formula 2-6] and the compound of […], respectively. S denotes the intensity of the signal collected using a CCD detector, φ is the fluorescence quantum yield (measured using coumarin 307 and rhodamine B according to the literature), […] fluorescence collection efficiency, and c is the number density of molecules in solution. δr is the two-photon cross section of the reference molecule.
# [3] = One-photon absorption and emission spectra, fluorescence quantum yield; assay type: physicochemical; settings: for 10^−4 ε: value is ε×10^−4
# Description: The solvatochromic effect observed for the compound of [Chemical Formula 2-6] may have resulted from the […] dipole moment.
# Absorption spectra were recorded on the Hewlett-Packard 8453 diode array spectrophotometer and fluorescence spectra were obtained with the Amico-Bowman series 2 luminescence spectrometer with a 1-cm standard quartz cell.
# HeLa cells [4] = assay: Cell viability, CCK-8 kit; assay type: cell-based, human; settings: incubation condition
# [5] = pH sensitivity of the fluorescence; assay type: physicochemical; settings: biologically relevant pH range
# [6] = HEPES buffer (20 mM HEPES, 100 mM KCl, pH 7.4)
compound,measurement,setting,value
COCCOCCC1(CCOCCOC)c2cc(NC(=O)OCc3ccc(N=[N+]=[N-])cc3)ccc2-c2ccc(-c3nc4ccccc4s3)cc21 [Chemical Formula 2-6],average emission ratio F2/F1,rat colon tissue; mucosa (90-150 μm),0.82±0.07
same,average emission ratio F2/F1,rat colon tissue; submucosa (151-170 μm),0.67±0.07
same,kobs in labeled HeLa cells,"HeLa cells [1]; HeLa cells labeled with 2-6, no additive",0.0 ± 0.1 s⁻¹
same,total sulfide concentration ([H2S]+[HS^−]) in HeLa cells,"HeLa cells [1]; no additive, probe 2-6",0.0 ± 0.1 µM
same,"λ^(2)max, two-photon maximum",[2]; HEPES,740 nm
same,"Φδmax, two-photon action cross section","[2]; HEPES buffer, 2-6 at 740 nm, 2-5 at 750 nm",0.67 GM
same,"λ^(2)max, two-photon maximum",[2]; HEPES/EtOH (1/1),740 nm
same,increase of action cross section (φδ) in HEPES/EtOH (1/1) versus HEPES buffer,[2]; HEPES/EtOH (1/1) vs HEPES buffer,12 fold
same,"Φδmax, two-photon action cross section","[2]; HEPES/EtOH (1/1), GM = 10^−50 cm^4s/photon",12 GM
same,"Δλmax, shift of absorption spectrum with solvent polarity","[3]; 1,4-dioxane to HEPES buffer",8 nm
same,"Δλ^FImax, shift of emission spectrum with solvent polarity","[3]; 1,4-dioxane<DMF<EtOH<HEPES/EtOH (1/1)<HEPES buffer",31 nm
same,"Φ, fluorescence quantum yield",[3]; EtOH,0.87
same,"λ^(1)max, one-photon absorption maximum",[3]; EtOH,354 nm
same,"λ^flmax, one-photon emission maximum",[3]; EtOH,437 nm
same,10^−4 ε,[3]; EtOH,(4.27) M^−1cm^−1
same,"Φ, fluorescence quantum yield",[3]; HEPES buffer,0.013
same,"λ^(1)max, one-photon absorption maximum",[3]; [6],360 nm
same,"λ^flmax, one-photon emission maximum",[3]; [6],444 nm
same,ε at maximum absorption,"[3]; HEPES buffer, pH 7.4",25000 M⁻¹ cm⁻¹
same,"Φ, fluorescence quantum yield",[3]; HEPES/EtOH (1/1),0.41
same,"λ^(1)max, one-photon absorption maximum",[3]; HEPES/EtOH (1/1),352 nm
same,"λ^flmax, one-photon emission maximum",[3]; HEPES/EtOH (1/1),440 nm
same,10^−4 ε,[3]; HEPES/EtOH (1/1),(4.11) M^−1cm^−1
same,10^−4 ε,[3]; HEPES,(2.50) M^−1cm^−1
same,toxicity (CCK-8 kit),HeLa cells [4],negligible toxicity
same,pH sensitivity,[5],pH-insensitive

# From patent US9220794B2, “Two-photon fluorescent probes for imaging of total sulfide in live cell and tissue, and quantitative estimation of total sulfide concentration using the same” (Korea University Research and Business Foundation, priority 2013, dated 2015)
